From patent publication US8097773B2, “Process for selecting banana clones and banana clones obtained thereby” (Rahan Meristem (1998) Ltd, priority 2004, dated 2012)

Legend:
Format in all cases: in vivo, Musa acuminata AAA, cv. 'Grande Naine'
[1] = test system: Dwarf mutant banana Grande Naine plantlets; assay: Influence of GA3 on internode length of in-vitro banana plantlets (GA sensitivity bioassay), Dwarf
Method: (§1) Somaclonal variants with both high and low sensitivity to GA were generated as a consequence of an extensive duration in tissue culture. Both ‘off-types’ were detectable by a relatively simple bioassay developed in this laboratory (Table 4). […] On the other hand the ‘Extra Dwarf’ phenotype was insensitive to the presence of GA in the medium.
(§2) Meristem culture was performed on a single ‘Grande Naine’ clone employing a standard protocol used at Rahan Meristem. The meristems were sub-cultured extensively (23 cycles) to induce somaclonal variations. The in vitro plantlets were transferred to a stage III medium containing 10 ppm of gibberellic acid (GA). […] Further analysis of somaclonal variation was carried out in ex-vitro conditions. Following acclimatization, the plants were planted in 5 L pots and placed in a poly-ethylene covered greenhouse for approximately 16 weeks prior to selection of ‘off-types’. Candidate plants showing distinct somaclonal variations were selected and used for further analysis. Stability of the different mutations was monitored following the growth of the selected clones in a commercial plantation in Rosh Hanikra, Israel.

[2] = test system: Extra dwarf mutant banana Grande Naine plantlets; assay: Influence of GA3 on internode length of in-vitro banana plantlets (GA sensitivity bioassay), Extra dwarf
Method: as §1, §2

[3] = test system: normal in-vitro banana Grande Naine plantlets; assay: Influence of GA3 on internode length of in-vitro banana plantlets (GA sensitivity bioassay), normal; conditions: GA3 10 mg/L in medium, grown 5 weeks, hormone-free control 14.2
Method: as §1, §2

SMILES: C=C1C[C@]23C[C@@]1(O)CC[C@H]2[C@@]12C=C[C@H](O)[C@@](C)(C(=O)O1)[C@H]2[C@@H]3C(=O)O [GA3, gibberellic acid]
- "internode" length ([1]; Dwarf plantlets, GA3 10 mg/L in medium, grown 5 weeks, hormone-free control 10.8): 14.9 b cm
- sensitivity to GA ([1]; dwarf genotype, GA in the medium): showed sensitivity
- sensitivity to GA ([2]; 'Extra Dwarf' phenotype, GA in the medium): insensitive
- "internode" length ([2]; Extra dwarf mutant plantlets, GA3 10 mg/L in medium, grown 5 weeks, hormone-free control 9.6): 9.6 cm·days
- "internode" length [3]: 21.7 a cm
